Laboratory results published in PubChem BioAssay (NCI).
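Method: 48-hour compound exposure of cells in 96-well plates, five concentrations, linear interpolation of endpoints. TGI: total growth inhibition.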

Assays:
Assay in all cases: NCI anticancer screen, dose series, 48 h
786-0 renal = system: 786-0 renal
A549 NSCLC = system: A549 NSCLC
CAKI-1 renal = system: CAKI-1 renal
COLO 205 colon = system: COLO 205 colon
DLD-1 colon = system: DLD-1 colon
DMS 114 small cell lung = system: DMS 114 small cell lung
DMS 273 small cell lung = system: DMS 273 small cell lung
HCC-2998 colon = system: HCC-2998 colon
HCT-116 colon = system: HCT-116 colon
HL-60(TB) leukemia = system: HL-60(TB) leukemia
HOP-62 NSCLC = system: HOP-62 NSCLC
HOP-92 NSCLC = system: HOP-92 NSCLC
HT29 colon = system: HT29 colon
KM12 colon = system: KM12 colon
KM20L2 colon = system: KM20L2 colon
LOX IMVI melanoma = system: LOX IMVI melanoma
LXFL 529 NSCLC = system: LXFL 529 NSCLC
M14 melanoma = system: M14 melanoma
NCI-H23 lung = system: NCI-H23 lung
NCI-H460 lung = system: NCI-H460 lung
NCI-H522 lung = system: NCI-H522 lung
OVCAR-3 ovarian = system: OVCAR-3 ovarian
OVCAR-4 ovarian = system: OVCAR-4 ovarian
OVCAR-5 ovarian = system: OVCAR-5 ovarian
OVCAR-8 ovarian = system: OVCAR-8 ovarian
SF-268 CNS = system: SF-268 CNS
SF-295 CNS = system: SF-295 CNS
SF-539 CNS = system: SF-539 CNS
SK-MEL-2 melanoma = system: SK-MEL-2 melanoma
SN12C renal = system: SN12C renal
SNB-19 CNS = system: SNB-19 CNS
SNB-75 CNS = system: SNB-75 CNS
SNB-78 CNS = system: SNB-78 CNS
SR leukemia = system: SR leukemia
SW-620 colon = system: SW-620 colon
U251 CNS = system: U251 CNS
UACC-257 melanoma = system: UACC-257 melanoma
UO-31 renal = system: UO-31 renal

Measured: TGI

O/N=C(\c1ccccc1)N1CCCCC1
> 100 µM: all assays above
